Measured values taken from patent US6765022B2, “Cyclohexylamine derivatives as subtype selective nmda receptor antagonists” (Warner-Lambert Company, priority 2000, dated 2004).
Counter-ions that a name gives are not always drawn.

Assays:
[1] = target: T1, [3H]ifenprodil binding, adult rat forebrain membranes (NMDA receptor) (Rattus norvegicus, UniProt P35439+Q00960); test: [3H]Ifenprodil binding assay; details: 4 nM [3H]-ifenprodil, 2 hours at room temperature, pH 7.4
T1 construct: membrane fraction was prepared from frozen adult rat forebrains; tissue Zivic-Miller Laboratories, Inc; host or cells: adult rat forebrain, buffy coat membrane fraction
T1 sequence (Q00960 27-1482, other chains not shown): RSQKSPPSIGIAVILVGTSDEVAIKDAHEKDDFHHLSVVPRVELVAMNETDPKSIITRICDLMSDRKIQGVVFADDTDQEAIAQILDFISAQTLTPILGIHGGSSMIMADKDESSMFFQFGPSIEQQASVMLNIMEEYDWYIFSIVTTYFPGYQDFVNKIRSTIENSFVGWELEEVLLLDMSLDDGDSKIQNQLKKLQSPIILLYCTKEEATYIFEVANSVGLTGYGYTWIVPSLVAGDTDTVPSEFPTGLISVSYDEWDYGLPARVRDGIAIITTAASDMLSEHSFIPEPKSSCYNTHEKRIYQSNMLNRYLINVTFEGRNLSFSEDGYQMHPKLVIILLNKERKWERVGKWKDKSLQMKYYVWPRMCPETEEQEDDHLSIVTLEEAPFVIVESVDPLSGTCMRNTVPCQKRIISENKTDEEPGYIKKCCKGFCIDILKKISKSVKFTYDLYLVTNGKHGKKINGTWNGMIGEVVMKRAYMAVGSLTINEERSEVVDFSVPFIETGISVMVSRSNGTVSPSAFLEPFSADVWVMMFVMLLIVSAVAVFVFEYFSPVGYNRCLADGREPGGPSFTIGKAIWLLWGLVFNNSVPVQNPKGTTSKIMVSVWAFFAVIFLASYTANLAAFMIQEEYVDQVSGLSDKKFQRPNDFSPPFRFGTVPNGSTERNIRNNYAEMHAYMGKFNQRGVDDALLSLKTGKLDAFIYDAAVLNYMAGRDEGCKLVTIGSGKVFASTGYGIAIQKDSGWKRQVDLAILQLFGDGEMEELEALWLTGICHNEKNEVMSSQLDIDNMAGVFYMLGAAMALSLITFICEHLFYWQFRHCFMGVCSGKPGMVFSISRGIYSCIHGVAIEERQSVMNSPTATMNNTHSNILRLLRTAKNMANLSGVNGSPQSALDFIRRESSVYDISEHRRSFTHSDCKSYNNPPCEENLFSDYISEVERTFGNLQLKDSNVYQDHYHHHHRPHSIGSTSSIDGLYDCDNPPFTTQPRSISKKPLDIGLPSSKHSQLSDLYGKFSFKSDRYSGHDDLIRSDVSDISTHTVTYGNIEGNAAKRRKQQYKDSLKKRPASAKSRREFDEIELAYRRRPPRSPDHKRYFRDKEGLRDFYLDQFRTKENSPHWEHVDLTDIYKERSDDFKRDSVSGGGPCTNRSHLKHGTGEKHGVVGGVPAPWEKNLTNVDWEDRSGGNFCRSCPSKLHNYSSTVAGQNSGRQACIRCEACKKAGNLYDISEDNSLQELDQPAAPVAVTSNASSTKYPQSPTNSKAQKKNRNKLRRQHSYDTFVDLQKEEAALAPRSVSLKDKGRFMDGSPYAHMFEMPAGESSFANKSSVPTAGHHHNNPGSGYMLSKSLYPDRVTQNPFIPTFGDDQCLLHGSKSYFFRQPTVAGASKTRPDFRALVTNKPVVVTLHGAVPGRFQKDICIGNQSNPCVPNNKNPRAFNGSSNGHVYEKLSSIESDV
Procedure: All buffers and reagents used in assay incubations or to dissolve drugs were prepared using water purified through a Milli-Q reverse osmosis system (Millipore Corp, Bedford, Mass.) and treated with UV emissions. Prior to use in the assays, buffers were further filtered through a sterile Corning filtration unit (Corning Glass Works, Corning, N.Y.) containing a 0.2-μm filter. Buffer used to rinse the membranes on the assay filters was prepared with purified water, but was not refiltered and was stored no longer than 5 days. Stock solutions of the drugs (usually 10 mM) were dissolved in 20 mM HEPES-KOH buffer pH 7.4 (assay buffer) with the addition of 1 to 5 μL of glacial AcOH, if needed, to keep them in solution. For eliprodil the stock solution was buffer with the addition of 10% DMSO. All subsequent dilutions from stock were made in buffer.
An extensively washed buffy coat membrane fraction was prepared from frozen adult rat forebrains (Zivic-Miller Laboratories, Inc, Zelienople, Pa.) as described previously (Coughenour L. L.; Cordon, J. J., J. Pharmacol. Exp. Ther., 1997;280:584-592) and stored at −80° C. On the day of the assay, pellets were resuspended in 35 mL of assay buffer at pH 7.4 using a Polytron setting 6. After incubation at 37° C. for 30 minutes in a shaking water bath, the homogenate was centrifuged 40,000×g for 10 minutes at 4° C. The pellets were resuspended in fresh buffer and centrifuged 3 more times before final suspension for use in the assay.
[^3H]Ifenprodil Binding. […] The filter mat was supported on a cold (−20° C.) teflon support, and filters from individual wells were separated and placed in Mini Poly-Q vials (Beckman Instruments Inc, Fullerton, Calif.) and filled with 4 mL of scintillation cocktail (Beckman Ready Protein^+). Radioactivity retained on the filter was determined by liquid scintillation spectrophotometry. […]
Data Analysis. Binding curves were statistically analyzed for a best one- or two-site competition fit using GraphPad Prism software (GraphPad Software Inc, San Diego, Calif.). […]

NR1A/NR2B = target: T2, NR1A/NR2B (Rattus norvegicus, UniProt P35439+Q00960); test: Electrophysiological assay at NMDA receptor subunits expressed in Xenopus oocytes (two-electrode voltage clamp); assay type: cell-based; details: cloned rat NR1A/NR2B in Xenopus oocytes; currents activated by glutamate (100 μM) and glycine (1-100 μM); read-out: NR1A/NR2B Oocyte IC50
T2 construct: expressed in transfected cells; host or cells: Xenopus laevis oocytes injected with cRNA
T2 sequence (Q00960 27-1482, other chains not shown): as above
Description: Preparation of RNA. cDNA clones encoding the NR1A, NR2A, NR2B, and NR2C rat NMDA receptor subtypes were used. (See Moriyoshi et al., Nature, (Lond.), 1991;354:31-37); Kutsuwada et al., Nature (Lond.), 1992;358:36-41; Monyer et al., Science (Washington, D.C.), 1992;256:1217-1221; Ikeda et al., FEBS Lett., 1992;313:34-38; Ishii et al., J. Biol. Chem., 1993;268:2836-2843 for details of these clones or their mouse homologs.) The clones were transformed into appropriate host bacteria, and plasmid preparations were made with conventional DNA purification techniques. A sample of each clone was linearized by restriction enzyme digestion […] was synthesized with T3 RNA polymerase. The cRNA was diluted to 400 ng/μL and stored in 1-μL aliquots at −80° C. until injection.
The Xenopus Oocyte Expression System. […]
Electrical recordings were made using a conventional two-electrode voltage clamp (Dagan TEV-200) over periods ranging between 3 to 21 days following injection (Woodward et al., Mol. Pharmacol., 1992;41:89-103). […] Inhibitory potency of the novel antagonists was assessed on responses elicited by fixed concentrations of glutamate and glycine, by measuring reductions in current induced by progressively increasing concentrations of antagonist. […]

Structure (SMILES) | melting point [°C] | IC50 [1] [nM] | IC50 (NR1A/NR2B) [nM]
CN(CCCc1ccc(O)cc1)[C@H]1CC[C@H](c2ccccc2)CC1 (as salt: HCl) [Example 4, trans-4-{3-[Methyl-(4-phenylcyclohexyl)amino]propyl}phenol] | 249 to 255 | – | –
Oc1ccc(CCN[C@H]2CC[C@H](c3ccccc3)CC2)cc1 (as salt: HCl) [Example 5, trans-4-[2-(4-Phenylcyclohexylamino)ethyl]phenol] | 238 to 241 | – | –
CN(CCc1ccc(O)cc1)[C@H]1CC[C@H](c2ccccc2)CC1 (as salt: HCl) [Example 6, trans 4-{2-[Methyl(4-phenylcyclohexyl)amino]ethyl}phenol] | 97 to 105 | – | –
Oc1ccc(CCCN[C@H]2CC[C@H](c3ccccc3)CC2)cc1 [Example 1b, trans4-[3-(4-Phenylcyclohexylamino)propyl]phenol] | 211 to 214 | 84 | –
C[C@H](N[C@H]1CC[C@H](c2ccccc2)CC1)[C@@H](O)c1ccc(O)cc1 [Example 2a, trans 4-[(1S,2S)-1-Hydroxy-2-(4-phenylcyclohexylamino)propyl]phenol] | – | 1300 | –
C[C@H](N[C@H]1CC[C@@H](c2ccccc2)CC1)[C@@H](O)c1ccc(O)cc1 [Example 2b, cis-4-[(1S,2S)-1-Hydroxy-2-(4-phenylcyclohexylamino)propyl]phenol] | – | 45 | 150
